From ChEMBL document CHEMBL1128349 (J Med Chem, 1995) come the findings set out here.

In assay [1] the target is T1, Alpha-2A adrenergic receptor (Homo sapiens, UniProt P08913).
T1 sequence (P08913 whole entry): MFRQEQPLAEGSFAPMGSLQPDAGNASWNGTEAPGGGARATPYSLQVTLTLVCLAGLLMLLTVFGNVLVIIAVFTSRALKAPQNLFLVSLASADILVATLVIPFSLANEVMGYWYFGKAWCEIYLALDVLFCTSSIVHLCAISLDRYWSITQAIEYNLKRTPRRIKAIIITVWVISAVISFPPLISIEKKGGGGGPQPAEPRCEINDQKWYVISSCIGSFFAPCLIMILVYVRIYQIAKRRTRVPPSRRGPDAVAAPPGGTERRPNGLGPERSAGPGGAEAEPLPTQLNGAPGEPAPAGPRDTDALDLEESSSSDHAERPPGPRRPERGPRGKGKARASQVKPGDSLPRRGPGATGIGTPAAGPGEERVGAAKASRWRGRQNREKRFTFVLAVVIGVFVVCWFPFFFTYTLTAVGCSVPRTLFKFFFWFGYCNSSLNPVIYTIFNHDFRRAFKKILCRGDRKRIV
The assay can be described thus: Ability to displace [3H]rauwolscine from cloned human Alpha-2A adrenergic receptor.

Assay [2] has as its target Voltage-gated L-type calcium channel (Rattus norvegicus, UniProt P22002+Q02485+P27732). The assay can be described thus: Displacement of [3H]nitrendipine from rat brain L-type [Ca2+] channel. Type of assay: tissue-based. (In general: Loss of bound radioactivity is the signal in a displacement assay; it reports binding, not function.)
Assay [3] deals with T2, Alpha-1D adrenergic receptor (Homo sapiens, UniProt P25100).
T2 sequence (P25100 whole entry): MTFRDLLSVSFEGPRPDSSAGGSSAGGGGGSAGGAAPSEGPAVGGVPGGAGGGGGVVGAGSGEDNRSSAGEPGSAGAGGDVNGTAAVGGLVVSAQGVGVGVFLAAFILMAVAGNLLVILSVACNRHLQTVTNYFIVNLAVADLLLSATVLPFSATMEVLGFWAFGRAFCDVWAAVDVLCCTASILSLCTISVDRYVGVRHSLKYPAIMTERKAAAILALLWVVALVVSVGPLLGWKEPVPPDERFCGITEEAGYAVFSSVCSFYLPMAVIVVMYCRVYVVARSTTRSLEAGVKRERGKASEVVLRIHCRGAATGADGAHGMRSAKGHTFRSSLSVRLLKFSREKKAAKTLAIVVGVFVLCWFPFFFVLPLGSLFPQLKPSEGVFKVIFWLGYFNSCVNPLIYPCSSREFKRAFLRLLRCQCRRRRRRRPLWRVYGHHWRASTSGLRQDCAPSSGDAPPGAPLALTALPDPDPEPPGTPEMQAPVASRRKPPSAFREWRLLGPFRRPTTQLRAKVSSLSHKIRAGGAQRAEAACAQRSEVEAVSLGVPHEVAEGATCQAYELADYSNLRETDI
The assay can be described thus: Ability to displace [3H]prazosin from cloned human Alpha-1D adrenergic receptor.

Assay [4] addresses T3, Alpha-2B adrenergic receptor (Homo sapiens, UniProt P18089).
T3 sequence (P18089 whole entry): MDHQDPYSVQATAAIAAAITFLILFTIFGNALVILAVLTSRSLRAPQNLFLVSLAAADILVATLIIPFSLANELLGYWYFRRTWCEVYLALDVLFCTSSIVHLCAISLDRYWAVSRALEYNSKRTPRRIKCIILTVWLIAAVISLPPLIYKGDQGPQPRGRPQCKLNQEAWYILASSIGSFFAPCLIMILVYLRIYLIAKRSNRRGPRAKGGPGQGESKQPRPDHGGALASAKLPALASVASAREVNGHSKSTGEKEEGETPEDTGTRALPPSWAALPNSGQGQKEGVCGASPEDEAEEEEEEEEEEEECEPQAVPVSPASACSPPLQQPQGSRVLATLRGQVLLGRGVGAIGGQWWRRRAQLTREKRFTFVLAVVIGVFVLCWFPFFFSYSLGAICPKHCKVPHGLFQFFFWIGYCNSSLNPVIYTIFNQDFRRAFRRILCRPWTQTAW

Assay [5] concerns the target T4, Alpha-1B adrenergic receptor (Homo sapiens, UniProt P35368).
T4 sequence (P35368 whole entry): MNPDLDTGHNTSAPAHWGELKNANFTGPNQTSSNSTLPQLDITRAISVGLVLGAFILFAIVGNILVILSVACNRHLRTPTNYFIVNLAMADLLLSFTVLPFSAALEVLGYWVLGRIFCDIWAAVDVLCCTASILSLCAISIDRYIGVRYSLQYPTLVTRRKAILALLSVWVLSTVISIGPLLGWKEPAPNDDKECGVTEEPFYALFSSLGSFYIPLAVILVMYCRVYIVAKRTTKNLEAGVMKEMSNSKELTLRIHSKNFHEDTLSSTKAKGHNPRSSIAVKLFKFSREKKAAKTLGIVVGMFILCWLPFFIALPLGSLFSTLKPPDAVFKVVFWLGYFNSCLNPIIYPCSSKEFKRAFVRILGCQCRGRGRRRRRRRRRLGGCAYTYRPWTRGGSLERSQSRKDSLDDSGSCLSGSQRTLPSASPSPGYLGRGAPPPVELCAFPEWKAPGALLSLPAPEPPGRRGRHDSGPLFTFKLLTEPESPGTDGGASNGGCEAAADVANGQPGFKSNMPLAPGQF
The assay can be described thus: Ability to displace [3H]prazosin from cloned human Alpha-1B adrenergic receptor.

In assay [6] the target is T5, Alpha-2C adrenergic receptor (Homo sapiens, UniProt P18825).
T5 sequence (P18825 whole entry): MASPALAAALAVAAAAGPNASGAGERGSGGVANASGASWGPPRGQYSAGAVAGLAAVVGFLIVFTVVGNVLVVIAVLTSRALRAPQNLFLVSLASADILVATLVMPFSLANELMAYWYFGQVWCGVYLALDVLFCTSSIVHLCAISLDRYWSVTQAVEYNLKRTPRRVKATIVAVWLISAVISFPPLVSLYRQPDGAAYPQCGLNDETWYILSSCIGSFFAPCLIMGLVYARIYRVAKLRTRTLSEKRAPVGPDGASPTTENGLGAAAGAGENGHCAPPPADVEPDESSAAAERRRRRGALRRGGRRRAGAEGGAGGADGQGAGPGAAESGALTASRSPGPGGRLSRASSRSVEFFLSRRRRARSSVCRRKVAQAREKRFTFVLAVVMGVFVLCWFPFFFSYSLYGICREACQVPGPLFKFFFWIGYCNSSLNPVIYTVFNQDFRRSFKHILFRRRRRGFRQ
The assay can be described thus: Ability to displace [3H]rauwolscine from cloned human Alpha-2C adrenergic receptor.

Assay [7] deals with T6, Alpha-1A adrenergic receptor (Homo sapiens, UniProt P35348).
T6 sequence (P35348 whole entry): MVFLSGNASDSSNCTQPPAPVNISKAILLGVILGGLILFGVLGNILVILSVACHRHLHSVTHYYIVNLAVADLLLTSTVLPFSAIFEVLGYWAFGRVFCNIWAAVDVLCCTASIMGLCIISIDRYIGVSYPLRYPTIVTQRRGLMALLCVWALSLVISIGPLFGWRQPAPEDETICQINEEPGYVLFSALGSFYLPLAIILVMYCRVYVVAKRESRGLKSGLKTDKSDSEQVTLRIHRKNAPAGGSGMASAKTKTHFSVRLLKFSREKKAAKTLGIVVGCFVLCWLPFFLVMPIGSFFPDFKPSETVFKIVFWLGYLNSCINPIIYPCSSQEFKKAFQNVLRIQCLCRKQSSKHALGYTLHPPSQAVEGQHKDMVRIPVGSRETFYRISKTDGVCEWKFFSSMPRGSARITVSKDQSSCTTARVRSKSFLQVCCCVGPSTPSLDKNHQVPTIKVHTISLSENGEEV

On to `CO/C(O)=C1\C(C)=NC(C)=C(C(=O)NCCCN2CCC(c3ccccc3)(c3ccccc3)CC2)[C@H]1c1ccc([N+](=O)[O-])cc1`, for which the Ki – broadly, the equilibrium dissociation constant of an inhibitor or competing ligand from its target – turned out to be […] in assay [1] and 670 nM in assay [2].
Consider `CO/C(O)=C1\C(C)=NC(C)=C(C(=O)OCCCN2CCC(c3ccccc3)(c3ccccc3)CC2)C1c1ccc([N+](=O)[O-])cc1` (configuration not stated), for which the inhibition constant Ki in assay [3] was determined as 210 nM; in assay [4], 570 nM; in assay [1] it was 800 nM; in assay [5] it was 50 nM; in assay [6], 300 nM; in assay [2] it was 250 nM. This compound also yielded an inhibition constant (Ki) in assay [7] of 0.32 nM.
In the case of `COc1cc2nc(N3CCN(C(=O)c4ccco4)CC3)nc(N)c2cc1OC` [PRAZOSIN], the Ki in assay [2] is on record as greater than 10000 nM.
Take `COc1cc2nc(N3CCN(C(=O)C4CCCO4)CC3)nc(N)c2cc1OC` (configuration not stated) [TERAZOSIN]: the Ki stood at 3.7 nM in assay [3] and 550 nM in assay [1].
